Measured values from US20120277211A1, “METHODS AND COMPOSITIONS FOR THE TREATMENT OF PSYCHOTIC DISORDERS THROUGH THE IDENTIFICATION OF THE SULT4A1-1 HAPLOTYPE” (priority 2009, published 2012).
Like-named read-outs stand apart in the source and are kept apart here. Marks after values point to notes of the source that are not given here.

Assays:
[1] = tested on: African American schizophrenia patients; test: CATIE: change in total PANSS (LOCF) by SULT4A1-1 haplotype status, African Americans; type: in vivo, human; conditions: for Number of individuals with change in total PANSS ≦−20% (responders) / Number of individuals with change in total PANSS ≧−20% (non-responders): LOCF
Experimental: The design of the CATIE study has been described in detail by others (Lieberman et al., 2005; Stroup et al., 2003). […] A total of 738 subjects consented to provide DNA for genetic study. […] Retrospective genetic analyses, judged to be exempt from human studies requirements by an IRB, were conducted in the current study. All tested patients were studied using well established clinical endpoints comparing baseline, intermediate, and last observation carried forward (LOCF) for the PANSS scores using CATIE data. […] To remove time on drug as a variable for the CATIE trial, analysis was limited to only those patients who were randomized to a different drug following the initial washout period (drug switchers).

[2] = tested on: Caucasian schizophrenia patients; test: CATIE: time to discontinuation for all causes by SULT4A1-1 status; type: in vivo, human; conditions: SULT4A1-1 negative
Source text: The primary endpoint for the CATIE study was time to discontinuation for all causes (Lieberman et al., 2005). Thus the inventors evaluated the effect of SULT41-1 status on this important parameter.

schizophrenia patients [3] = test: CATIE: months of successful treatment measured by the CGI scale (TMSUCC1); type: in vivo, human
Source text: The CATIE clinical data set included Clinical Global Impression (CGI) Scale, an observer-provided assessment of the psychiatric health of the patient (Stroup et al., 2003; Guy 1976). Patients are rated with the CGI Scale from 1 to 7, with higher scores indicating greater severity of illness. The CATIE study provided a response variable that measured the time (in months) of successful treatment as measured by the CGI scale (“TMSUCC1” in the CATIE data).

[4] = tested on: Caucasian schizophrenia patients; test: CATIE: hospitalization due to exacerbation of psychosis by SULT4A1-1 status; type: in vivo, human
Source text: To assess if SULT4A1-1 status impacts the risk of hospitalization in Caucasians, the inventors assigned SULT4A1-1 status to each CATIE subject and evaluated hospitalization events due to exacerbation of psychosis. For this analysis, the inventors assigned a dichotomous value (positive or negative) for hospitalization status to subjects in each phase of the trial based on only the first hospitalization event for a given patient in that phase. Patients participating in Phases 1, 2, and/or 3 were included in the totals for the appropriate drug.
A Kaplan-Meier survival analysis was performed to determine whether there was a difference between the survival (hospitalization) rates for the SULT4A1-1 negative and SULT4A1-1 positive patient populations treated with each of the atypical antipsychotics. Survival plots model the fraction of the population that survived (i.e., no hospitalization event) as a function of time.

schizophrenia patients [5] = conditions: Phase II; for Responders: decrease PANSS ≧20%, LOCF
schizophrenia patients [6] = conditions: published CATIE results (Lieberman et al. 2005); cited from earlier work

Cc1cc2c(s1)Nc1ccccc1N=C2N1CCN(C)CC1 [Olanzapine]
Responders ([1]; SULT4A1-1 negative): 33.3% | Number of individuals with change in total PANSS ≦−20% (responders) ([1]; SULT4A1-1 negative): 15 | Number of individuals with change in total PANSS ≧−20% (non-responders) ([1]; SULT4A1-1 negative): 30 | Responders ([1]; SULT4A1-1 positive): 25% | Number of individuals with change in total PANSS ≦−20% (responders) ([1]; SULT4A1-1 positive): 1 | Number of individuals with change in total PANSS ≧−20% (non-responders) ([1]; SULT4A1-1 positive): 3 | Time to discontinuation, mean [2]: 10.0** Months | Length of successful treatment (CGI Months), Mean (schizophrenia patients [3]; SULT4A1-1 negative): 5.44 Months | Length of successful treatment (CGI Months), Mean (schizophrenia patients [3]; SULT4A1-1 positive): 8.33^d Months | Length of successful treatment (CGI Months), Mean (schizophrenia patients [3]; Unsegmented): 6.10 Months | HOSP, number of patients hospitalized ([4]; SULT4A1-1 negative): 22 | HOSP, number of patients hospitalized ([4]; SULT4A1-1 positive): 1 | HOSP, rate of hospitalization ([4]; SULT4A1-1 positive): 2.6% | HOSP, rate of hospitalization ([4]; Unsegmented): 14.2% | HOSP, number of patients hospitalized ([4]; Unsegmented, Phases 1, 2 and/or 3, first event): 23 | Nonresponders (schizophrenia patients [5]; SULT4A1-1 Negative): 14 | Responders (schizophrenia patients [5]; SULT4A1-1 Negative): 3 | % Responders (schizophrenia patients [5]; SULT4A1-1 Positive): 42.9% | Nonresponders (schizophrenia patients [5]; SULT4A1-1 Positive): 4 | Responders (schizophrenia patients [5]; SULT4A1-1 Positive): 3 | Incidence of clinically significant weight gain compared to other drugs (schizophrenia patients [6]): higher incidence of clinically significant weight gain
